Assay [1] has as its target E. coli RNA polymerase σ70 holoenzyme (Escherichia coli (strain K12), UniProt P0A8T7+P0A8V2). Briefly: Fluorescence-detected RNA polymerase assay, E. coli RNAP. The assay is classed as biochemical. Here is the method: (§1) Fluorescence-detected RNA polymerase assays with E. coli RNA polymerase were performed by a modification of the procedure of Kuhlman et al., 2004 [Kuhlman, P., Duff, H. & Galant, A. (2004) A fluorescence-based assay for multisubunit DNA-dependent RNA polymerases. Anal. Biochem. 324, 183-190]. Reaction mixtures contained (20 μl): 0-100 nM test compound, 75 nM E. coli RNA polymerase σ^70 holoenzyme, 20 nM 384 bp DNA fragment containing the bacteriophage T4 N25 promoter, 100 μM ATP, 100 μM GTP, 100 μM UTP, 100 μM CTP, 50 mM Tris-HCl, pH 8.0, 100 mM KCl, 10 mM MgCl2, 1 mM DTT, 10 μg/ml bovine serum albumin, and 5.5% glycerol. Reaction components other than DNA and NTPs were pre-incubated for 10 min at 37° C. Reactions were carried out by addition of DNA and incubation for 5 min at 37° C., followed by addition of NTPs and incubation for 60 min at 37° C. DNA was removed by addition of 1 μl 5 mM CaCl2 and 2 U DNaseI (Ambion, Inc.), followed by incubation for 90 min at 37° C. RNA was quantified by addition of 100 μl RiboGreen RNA Quantitation Reagent (Invitrogen, Inc.; 1:500 dilution in Tris-HCl, pH 8.0, 1 mM EDTA), followed by incubation for 10 min at 25° C., followed by measurement of fluorescence intensity [excitation wavelength=485 nm and emission wavelength=535 nm; QuantaMaster QM1 spectrofluorometer (PTI, Inc.)]. IC50 is defined as the concentration of inhibitor resulting in 50% inhibition of RNA polymerase activity.

The target of assay [2] is M. tuberculosis RNA polymerase core enzyme + σA (Mycobacterium tuberculosis (strain ATCC 25618 / H37Rv), UniProt P9WGY7+P9WGY9). Briefly: Fluorescence-detected RNA polymerase assay, M. tuberculosis RNAP. Format: biochemical. Here is the method:
as §1
Fluorescence-detected RNA polymerase assays with M. tuberculosis RNA polymerase were performed as in Example 21.1, using reaction mixtures containing (20 μl): 0-100 nM test compound, 75 nM M. tuberculosis RNA polymerase core enzyme, 300 nM M. tuberculosis σ^A, 20 nM 384 bp DNA fragment containing the bacteriophage T4 N25 promoter, 100 μM ATP, 100 μM GTP, 100 μM UTP, 100 μM CTP, 40 mM Tris-HCl, pH 8.0, 80 mM NaCl, 5 mM MgCl2, 2.5 mM DTT, and 12.7% glycerol. IC50 is defined as the concentration of inhibitor resulting in 50% inhibition of RNA polymerase activity.

In assay [3] the target is S. aureus RNA polymerase core enzyme + σA (Staphylococcus aureus (strain NCTC 8325 / PS 47), UniProt P47768+Q2G0N5). Briefly: Fluorescence-detected RNA polymerase assay, S. aureus RNAP. Format: biochemical. Here is the method: as §1
Fluorescence-detected RNA polymerase assays with S. aureus RNA polymerase were performed as in Example 21.1, using reaction mixtures containing (20 μl): 0-100 nM test compound, 75 nM S. aureus RNA polymerase core enzyme, 300 nM S. aureus σ^A, 20 nM 384 bp DNA fragment containing the bacteriophage T4 N25 promoter, 100 μM ATP, 100 μM GTP, 100 μM UTP, 100 μM CTP, 40 mM Tris-HCl, pH 8.0, 80 mM NaCl, 5 mM MgCl2, 2.5 mM DTT, and 12.7% glycerol. IC50 is defined as the concentration of inhibitor resulting in 50% inhibition of RNA polymerase activity.

Assay [4] concerns Bacillus anthracis Vollum-1b. Briefly: microbe, parasite or virus in culture. The assay is classed as cell-based. Conditions: VOLLUM1B, read-out: MIC B. anthracis Vollum-1b.
In assay [5] the test system is Francisella tularensis SCHU4. As to the kind of experiment: microbe, parasite or virus in culture. Conditions: SCHU4, read-out: MIC F. tularensis SCHU4. The assay is classed as cell-based.
For assay [6], the system named is Mycobacterium tuberculosis H37Rv. As to the kind of experiment: MIC, microplate Alamar Blue assay. Conditions: read-out: MIC M. tuberculosis H37Rv.
In assay [7] the test system is Staphylococcus aureus ATCC 12600. Briefly: MIC, spiral gradient endpoint assay. As to conditions: ATCC12600, read-out: MIC S. aureus 12600.
Assay [8] relates to Enterococcus faecalis ATCC 19433. As to the kind of experiment: MIC, spiral gradient endpoint assay. As to conditions: ATCC19433, read-out: MIC E. faecalis 19433.
Assay [9] relates to Escherichia coli D21f2tolC. Briefly: MIC, spiral gradient endpoint assay. Conditions: read-out: MIC E. coli D21f2tolC.
Assay [10] has as its system Streptococcus pneumoniae ATCC 49619. As to the kind of experiment: MIC, spiral gradient endpoint assay (GC II agar, 5% CO2). Conditions: ATCC49619, read-out: MIC S. pneumoniae 49619.
The test system of assay [11] is Streptococcus pyogenes ATCC 12344. The description is as above. As to conditions: ATCC12344, read-out: MIC S. pyogenes 12344.
Assay [12] relates to Moraxella catarrhalis ATCC 25238. The description is as above. As to conditions: ATCC25238, read-out: MIC M. catarrhalis 25238.

≈ marks a conversion by molar mass, not a printed value.

By IC50 is commonly meant the point on the concentration scale where inhibition reaches its midpoint.

Take `CC(C)CCC1=C(O)C(CCC(C)C)(CCC(C)C)C(=O)C(C(=O)CCc2ccccc2Cl)=C1O` [Compound 1, 3,5-dihydroxy-2-(3-(2-chlorophenyl)propanoyl)-4,6,6-triisopentylcyclohexa-2,4-dienone]: the IC50 in [1] was determined as 2100 nM; in [2], 1200 nM; in [3], 5700 nM. The MIC in assay [4] stood at 0.049 µg/mL (≈ 0.0974 µM); in assay [5] it was 6.25 µg/mL (≈ 12.4 µM); in [6] it was 50 µg/mL (≈ 99.4 µM); in assay [7], 0.6 µg/mL (≈ 1.19 µM); in assay [8], 2 µg/mL (≈ 3.98 µM); in assay [9] it was 24 µg/mL (≈ 47.7 µM). Besides, the results for the MIC in [10], in [11] and in assay [12] were 15 µg/mL (≈ 29.8 µM), 19 µg/mL (≈ 37.8 µM) and more than 40 µg/mL, respectively.

As to `CC(C)CCC1=C(O)C(CCC(C)C)(CCC(C)C)C(=O)C(C(=O)CCc2cccc(Cl)c2)=C1O` [Compound 2, 3,5-dihydroxy-2-(3-(3-chlorophenyl)propanoyl)-4,6,6-triisopentylcyclohexa-2,4-dienone], the IC50 came out at 2500 nM in assay [1], 2200 nM in assay [2] and 5900 nM in assay [3]. For the same compound, the MIC is 0.098 µg/mL (≈ 0.195 µM) in assay [4]; more than 50 µg/mL in [5]; 50 µg/mL (≈ 99.4 µM) in [6]; 0.5 µg/mL (≈ 0.994 µM) in assay [7]; 1 µg/mL (≈ 1.99 µM) in assay [8]; 15 µg/mL (≈ 29.8 µM) in assay [9]. Further, the MIC came out at 12 µg/mL (≈ 23.9 µM) in assay [10], 19 µg/mL (≈ 37.8 µM) in assay [11] and 19 µg/mL (≈ 37.8 µM) in assay [12].

With `CC(C)CCC1=C(O)C(CCC(C)C)(CCC(C)C)C(=O)C(C(=O)CCc2ccc(Cl)cc2)=C1O` [Compound 3, 3,5-dihydroxy-2-(3-(4-chlorophenyl)propanoyl)-4,6,6-triisopentylcyclohexa-2,4-dienone], the IC50 in assay [1] was 630 nM; in assay [2] it was 770 nM; in assay [3], 2400 nM. Besides, the MIC in [4] is 0.049 µg/mL (≈ 0.0974 µM); in assay [5] it was more than 50 µg/mL; in assay [6], 50 µg/mL (≈ 99.4 µM); in assay [7], 0.4 µg/mL (≈ 0.795 µM); in assay [8], 1 µg/mL (≈ 1.99 µM); in assay [9], 8 µg/mL (≈ 15.9 µM). The MIC in assay [10], in assay [11] and in assay [12] was 19 µg/mL (≈ 37.8 µM) in each case.

For the compound `Cc1ccccc1CCC(=O)C1=C(O)C(CCC(C)C)=C(O)C(CCC(C)C)(CCC(C)C)C1=O` [Compound 7, 3,5-dihydroxy-2-(3-(2-methylphenyl)propanoyl)-4,6,6-triisopentylcyclohexa-2,4-dienone], the IC50 in assay [1] stood at 210 nM; in assay [2], 170 nM; in assay [3], 1100 nM. Also, the MIC is 50 µg/mL (≈ 104 µM) in [6], 0.5 µg/mL (≈ 1.04 µM) in assay [7], 1 µg/mL (≈ 2.07 µM) in [8] and 7 µg/mL (≈ 14.5 µM) in assay [9].

As to `Cc1cccc(CCC(=O)C2=C(O)C(CCC(C)C)=C(O)C(CCC(C)C)(CCC(C)C)C2=O)c1` [Compound 8, 3,5-dihydroxy-2-(3-(3-methylphenyl)propanoyl)-4,6,6-triisopentylcyclohexa-2,4-dienone], the IC50 in assay [1] was found to be 420 nM; in assay [2], 600 nM; in [3], 2200 nM. The MIC in assay [6] is more than 50 µg/mL; in assay [7], 4 µg/mL (≈ 8.29 µM); in [8], 1 µg/mL (≈ 2.07 µM); in [9], 12 µg/mL (≈ 24.9 µM).

Consider `Cc1ccc(CCC(=O)C2=C(O)C(CCC(C)C)=C(O)C(CCC(C)C)(CCC(C)C)C2=O)cc1` [Compound 9, 3,5-dihydroxy-2-(3-(4-methylphenyl)propanoyl)-4,6,6-triisopentylcyclohexa-2,4-dienone], for which the figures for the 50% inhibitory concentration (IC50) in assay [1], in assay [2] and in assay [3] were 220 nM, 290 nM and 840 nM, respectively. In addition, the MIC turned out to be 25 µg/mL (≈ 51.8 µM) in [6], 0.5 µg/mL (≈ 1.04 µM) in assay [7], 1 µg/mL (≈ 2.07 µM) in [8] and 4.4 µg/mL (≈ 9.12 µM) in assay [9].

Consider `CC(C)CCC1=C(O)C(CCC(C)C)(CCC(C)C)C(=O)C(C(=O)CCc2ccc(F)cc2)=C1O` [Compound 10, 3,5-dihydroxy-2-(3-(4-fluorophenyl)propanoyl)-4,6,6-triisopentylcyclohexa-2,4-dienone], for which the IC50 worked out at 530 nM in [1], 640 nM in assay [2] and 2200 nM in assay [3]. The MIC in assay [6] is 50 µg/mL (≈ 103 µM); in assay [7] it was 0.5 µg/mL (≈ 1.03 µM); in assay [8] it was 2.7 µg/mL (≈ 5.55 µM); in assay [9], 2.7 µg/mL (≈ 5.55 µM).

With `CC(C)CCC1=C(O)C(CCC(C)C)(CCC(C)C)C(=O)C(C(=O)CCc2ccc(Br)cc2)=C1O` [Compound 11, 3,5-dihydroxy-2-(3-(4-bromophenyl)propanoyl)-4,6,6-triisopentylcyclohexa-2,4-dienone], the IC50 in assay [1] was 890 nM; in [2], 780 nM; in assay [3], 3300 nM. The MIC in assay [6] was found to be 50 µg/mL (≈ 91.3 µM); in [7], 0.8 µg/mL (≈ 1.46 µM); in assay [8], 2.6 µg/mL (≈ 4.75 µM); in assay [9] it was 3.3 µg/mL (≈ 6.03 µM).

For the compound `CC(C)CCC1=C(O)C(CCC(C)C)(CCC(C)C)C(=O)C(C(=O)CCc2ccc(C(F)(F)F)cc2)=C1O` [Compound 12, 3,5-dihydroxy-2-(3-(4-trifluoromethylphenyl)propanoyl)-4,6,6-triisopentylcyclohexa-2,4-dienone], the half-maximal inhibitory concentration (IC50) in [1] stood at 120 nM; in assay [2], 220 nM; in assay [3], 460 nM. The MIC in assay [6] is 25 µg/mL (≈ 46.6 µM); in assay [7], 0.6 µg/mL (≈ 1.12 µM); in assay [8] it was 0.5 µg/mL (≈ 0.932 µM); in assay [9] it was 4.3 µg/mL (≈ 8.01 µM).

Consider `CCCC1=C(O)C(CCC)(CCC)C(=O)C(C(=O)CCc2ccc(Cl)cc2)=C1O` [Compound 13, 3,5-dihydroxy-2-(3-(4-chlorophenyl)propanoyl)-4,6,6-tripropylcyclohexa-2,4-dienone], for which the IC50 in assay [1] stood at 7800 nM; in assay [2], 1400 nM; in assay [3], 5300 nM. Further, the MIC in assay [6] was more than 50 µg/mL; in [7] it was 0.7 µg/mL (≈ 1.67 µM); in assay [8], 2.2 µg/mL (≈ 5.25 µM); in [9], 0.8 µg/mL (≈ 1.91 µM).

In the case of `CCCCC1=C(O)C(CCCC)(CCCC)C(=O)C(C(=O)CCc2ccc(Cl)cc2)=C1O` [Compound 14, 3,5-dihydroxy-2-(3-(4-chlorophenyl)propanoyl)-4,6,6-tributylcyclohexa-2,4-dienone], the IC50 in [1] is 1100 nM; in [2], 680 nM; in [3], 3100 nM. For the same compound, the MIC in assay [6] was more than 50 µg/mL; in [7], 0.5 µg/mL (≈ 1.08 µM); in assay [8], 1.3 µg/mL (≈ 2.82 µM); in assay [9] it was 0.6 µg/mL (≈ 1.3 µM).

The record behind these values is patent publication US10800725B2, “Arylpropionyl-triketone antibacterial agents” (priority 2010, dated 2020).
